Assay results from patent US11339130B1 (Blade Therapeutics, Inc., priority 2016, dated 2022).
Where two headings read alike, the source gives them in different places.

What was measured:
Human Calpain 1/NS1 = target: T1, Human Calpain 1/NS1 (Homo sapiens, UniProt P07384); assay: Calpain inhibition continuous fluorescence (FRET) assay, Human Calpain 1/NS1; assay type: biochemical; conditions: read-out: Human Calpain 1/NS1 IC50
T1 sequence (P07384 1-714): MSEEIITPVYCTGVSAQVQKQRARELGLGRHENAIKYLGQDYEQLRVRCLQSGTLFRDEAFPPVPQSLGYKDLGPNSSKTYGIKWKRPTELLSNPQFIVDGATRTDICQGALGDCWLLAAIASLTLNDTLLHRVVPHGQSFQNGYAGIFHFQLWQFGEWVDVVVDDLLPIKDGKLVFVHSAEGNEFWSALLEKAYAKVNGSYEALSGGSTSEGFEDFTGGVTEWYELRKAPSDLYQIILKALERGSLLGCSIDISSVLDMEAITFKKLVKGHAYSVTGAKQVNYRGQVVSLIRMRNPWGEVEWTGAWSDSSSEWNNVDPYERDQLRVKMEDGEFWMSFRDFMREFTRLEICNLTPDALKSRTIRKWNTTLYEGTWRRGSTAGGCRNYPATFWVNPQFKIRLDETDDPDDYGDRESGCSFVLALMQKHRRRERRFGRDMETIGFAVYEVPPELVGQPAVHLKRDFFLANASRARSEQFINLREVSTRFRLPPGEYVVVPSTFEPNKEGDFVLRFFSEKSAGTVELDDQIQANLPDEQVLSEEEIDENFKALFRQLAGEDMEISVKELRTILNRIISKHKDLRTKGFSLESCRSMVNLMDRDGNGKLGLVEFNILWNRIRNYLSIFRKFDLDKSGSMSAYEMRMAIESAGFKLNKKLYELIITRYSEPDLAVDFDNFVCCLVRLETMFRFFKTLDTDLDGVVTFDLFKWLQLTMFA
T1 sequence (P04632 1-268 partner): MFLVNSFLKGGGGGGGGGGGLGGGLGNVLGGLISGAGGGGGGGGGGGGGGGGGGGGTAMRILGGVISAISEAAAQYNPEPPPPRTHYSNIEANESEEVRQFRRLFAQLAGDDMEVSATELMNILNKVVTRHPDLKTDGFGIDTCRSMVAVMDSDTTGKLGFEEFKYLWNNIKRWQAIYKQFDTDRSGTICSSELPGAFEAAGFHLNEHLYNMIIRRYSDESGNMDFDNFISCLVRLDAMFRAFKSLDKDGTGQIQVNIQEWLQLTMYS
Outline: (§1)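 Human calpains 1, 2 and 9 preincubated with inhibitor at 25 °C in 50 mM Tris pH 7.5, 100 mM NaCl, 1 mM DTT; reaction started with 5-FAM/QXL 520 FRET peptide plus CaCl2 for activation. Fluorescence (490/520 nm) followed 10 min; rates from 1-5 min slopes fitted to 4-parameter logistic for IC50.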

Human Calpain 2/NS1 = target: T2, Human Calpain 2/NS1 (Homo sapiens, UniProt P17655); assay: Calpain inhibition continuous fluorescence (FRET) assay, Human Calpain 2/NS1; assay type: biochemical; conditions: read-out: Human Calpain 2/NS1 IC50
T2 sequence (P17655 1-700): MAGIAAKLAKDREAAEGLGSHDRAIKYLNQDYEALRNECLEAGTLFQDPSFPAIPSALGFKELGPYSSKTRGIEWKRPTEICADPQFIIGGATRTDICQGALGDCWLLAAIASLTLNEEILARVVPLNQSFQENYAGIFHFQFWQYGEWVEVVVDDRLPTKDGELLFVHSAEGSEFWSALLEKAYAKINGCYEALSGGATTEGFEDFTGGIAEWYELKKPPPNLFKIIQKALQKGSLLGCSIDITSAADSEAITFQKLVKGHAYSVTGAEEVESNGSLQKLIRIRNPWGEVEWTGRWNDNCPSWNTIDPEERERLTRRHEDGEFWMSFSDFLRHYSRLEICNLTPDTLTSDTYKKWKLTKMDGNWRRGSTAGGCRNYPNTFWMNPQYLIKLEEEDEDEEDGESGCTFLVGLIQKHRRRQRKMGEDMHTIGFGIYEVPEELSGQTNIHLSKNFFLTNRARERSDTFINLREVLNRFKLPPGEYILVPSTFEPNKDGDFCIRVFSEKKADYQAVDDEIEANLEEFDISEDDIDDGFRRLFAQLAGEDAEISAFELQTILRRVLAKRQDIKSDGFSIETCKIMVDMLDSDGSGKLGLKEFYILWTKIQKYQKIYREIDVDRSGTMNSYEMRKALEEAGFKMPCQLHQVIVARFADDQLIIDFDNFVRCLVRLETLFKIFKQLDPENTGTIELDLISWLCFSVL
T2 sequence (P04632 1-268 partner): T1 sequence (P04632 1-268 partner)
Outline: as §1

Human Calpain 9/NS1 = target: T3, Human Calpain 9/NS1 (Homo sapiens, UniProt O14815); assay: Calpain inhibition continuous fluorescence (FRET) assay, Human Calpain 9/NS1; assay type: biochemical; conditions: read-out: Human Calpain 9/NS1 IC50
T3 sequence (O14815 1-690): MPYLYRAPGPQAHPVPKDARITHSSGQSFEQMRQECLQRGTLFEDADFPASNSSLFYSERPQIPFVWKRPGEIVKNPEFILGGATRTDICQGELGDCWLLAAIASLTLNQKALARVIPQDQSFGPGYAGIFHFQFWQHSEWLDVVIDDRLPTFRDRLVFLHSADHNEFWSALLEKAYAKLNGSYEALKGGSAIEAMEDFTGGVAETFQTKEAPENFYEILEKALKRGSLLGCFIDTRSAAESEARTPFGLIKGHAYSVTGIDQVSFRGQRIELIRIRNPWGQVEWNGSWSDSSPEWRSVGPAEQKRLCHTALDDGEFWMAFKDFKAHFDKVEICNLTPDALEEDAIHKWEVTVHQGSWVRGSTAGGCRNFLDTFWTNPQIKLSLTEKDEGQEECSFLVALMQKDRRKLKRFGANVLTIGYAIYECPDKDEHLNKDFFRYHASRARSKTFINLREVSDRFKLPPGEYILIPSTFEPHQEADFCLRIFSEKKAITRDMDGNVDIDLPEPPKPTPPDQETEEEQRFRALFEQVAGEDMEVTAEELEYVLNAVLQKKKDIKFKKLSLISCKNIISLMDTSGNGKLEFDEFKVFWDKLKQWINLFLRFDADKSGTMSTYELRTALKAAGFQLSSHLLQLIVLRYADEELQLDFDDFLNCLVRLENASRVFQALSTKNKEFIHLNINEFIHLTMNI
T3 sequence (P04632 1-268 partner): T1 sequence (P04632 1-268 partner)
Outline: as §1

[1] = tested on: Calpain activity in SH-SY5Y cells (SBDP-150); assay: SH-SY5Y Spectrin western blot assay (SBDP-150 breakdown product, A23187-induced); assay type: cell-based; conditions: SH-SY5Y cells, read-out: SH-SY5Y Spectrin IC50
[2] = tested on: Calpain activity in SH-SY5Y cells; assay: SH-SY5Y + AMC fluorescence assay (Suc-LLVY-AMC substrate); assay type: cell-based; conditions: read-out: SH-SY5Y + AMC IC50
[3] = tested on: Bleomycin-induced pulmonary fibrosis; assay: Bleomycin-induced pulmonary fibrosis in mice (14 d); assay type: in vivo; set-up: concentration or dose not given beside the values
Description: The method for inducing pulmonary fibrosis in mice is described in Current Protocols in Pharmacology: 5.46.1, entitled “Mouse Models of Bleomycin-induced Pulmonary Fibrosis”. In order to induce pulmonary fibrosis, 6-8 week old C57B1/6 mice or Wistar rats are instilled once oropharyngeally with ˜1.5 U/kg of bleomycin sulfate (Calbiochem, Billerica, Mass.). Briefly, for oropharyngeal administration of bleomycin, mice or rats are anesthetized with isofluorane and then suspended on its back at a˜60 degree angle on an inclined surface with a rubber band running under the upper incisors. The airway is opened while securing the tongue with one arm of padded forceps and bleomycin is administered into the back of the oral cavity with a syringe. The animal's tongue and mouth were held open until the liquid disappeared from the oral cavity. The animal was then returned to its cage and monitored until fully recovered from the anesthesia. The study is terminated on day 14-28 for oropharyngeally administered bleomycin in mice and rats. All animals are euthanized at the termination of the studies by cervical dislocation for gross necropsy, and blood collected by cardiac puncture. The lungs from each animal are dissected from the animal and weighed. The BAL cells and fluid are collected by lavaging the lung twice with 0.5 ml Hanks Balanced Salt Solution (HBSS; VWR, Radnor, Pa.). After collection of BAL cells and fluid, lungs are dissected and removed from each animal. Whole lungs are inflated with 10% NBF and then fixed in 10% NBF for histology. Severity of fibrosis in the lungs is evaluated using a modified Ashcroft score (Hubner, Biotechniques, 2008) and subjective fibrosis scores. Lung sections were graded by averaging 5 microscopic fields at 20× on an Ashcroft scale as follows: Grade 0=normal lung; Grade 1=minimally detectable thickening of alveolar walls; Grade 2=Mild thickening of alveolar walls. Grade 3=moderate contiguous thickening of walls with fibrous nodules; Grade 4=Thickened septae and confluent fibrotic masses that total less than 10% of microscopic field. Grade 5=increased fibrosis with definite damage to lung structure and formation of fibrous bands or small fibrous masses between 10 and 50% of microscopic field; Grade 6=Large contiguous fibrotic masses consolidating more than 50% of microscopic field. Grade 7=severe distortion of structure and large fibrous areas; Grade 8=total fibrous obliteration of lung within microscopic field. Each slide was examined at 20× magnification and the score for 5 separate representative fields was averaged for each animal. Subjective scores (H&E and Trichrome-stained slides) were evaluated at 2× magnification for an overall assessment of pathologic change. A score of 0=no detectible findings to 5=complete involvement of consolidation. Scores in each group were averaged and standard error was calculated using Excel 2010. Dense, organized inflammatory exudates were scored as fibrosis. Other tissues were evaluated microscopically and scored routinely.

[4] = Homo sapiens, A23187-induced SBDP-150, western blot
[5] = Column D, A23187-induced SBDP-150
[6] = A23187-induced SBDP-150, western blot

| Molecule | IC50 (Human Calpain 1/NS1) | IC50 (Human Calpain 2/NS1) | IC50 (Human Calpain 9/NS1) | IC50 [1, 4] | IC50 [2] | IC50 (Human Calpain 1/NS1; Column A) | IC50 (Human Calpain 2/NS1; Column B) | IC50 (Human Calpain 9/NS1; Column C) | IC50 [1, 5] | IC50 ([2]; Column E) | IC50 [1, 6] | % reduction compared to vehicle [3] |
| --- | --- | --- | --- | --- | --- | --- | --- | --- | --- | --- | --- | --- |
| Cc1ccc(=O)n(-c2ccccc2)c1 [pirfenidone, reference compound] | – | – | – | – | – | – | – | – | – | – | – | −14% |
| (S)—N-(4-amino-3,4-dioxo-1-phenylbutan-2-yl)-3-methyl-1-(5-methylpyridin-2-yl)-1H-pyrazole-5-carboxamide [Compound 121] | – | – | – | – | – | < 3 µM | < 3 µM | < 3 µM | < 10 µM | 10 to 25 µM | – | – |
| (S)—N-(4-amino-3,4-dioxo-1-phenylbutan-2-yl)-4-(2-fluorophenyl)-2-methyloxazole-5-carboxamide [Compound 267] | – | – | – | – | – | < 3 µM | < 3 µM | < 3 µM | 10 to 25 µM | < 10 µM | – | – |
| Methyl (S)-(4-(5-((4-amino-3,4-dioxo-1-phenylbutan-2-yl)carbamoyl)-3-methyl-1H-pyrazol-1-yl)benzyl)carbamate [Compound 161] | – | – | – | – | – | < 3 µM | < 3 µM | < 3 µM | < 10 µM | > 25 µM | – | – |
| N-(4-amino-3,4-dioxo-1-phenylbutan-2-yl)-1-(2-cyanopyrimidin-4-yl)-3-methyl-1H-pyrazole-5-carboxamide [Compound 448] | < 3 µM | < 3 µM | < 3 µM | – | < 10 µM | – | – | – | – | – | < 10 µM | – |
| N-(4-amino-3-hydroxy-4-oxo-1-phenylbutan-2-yl)-4-(4-((benzyloxy)methyl)phenyl)-1,2,5-thiadiazole-3-carboxamide [Compound 369] | < 3 µM | < 3 µM | < 3 µM | – | > 25 µM | – | – | – | – | – | < 10 µM | – |

Second part, led by results:

| IC50 (Human Calpain 1/NS1) | IC50 (Human Calpain 2/NS1) | IC50 (Human Calpain 9/NS1) | IC50 [1, 4] | IC50 [2] | IC50 (Human Calpain 1/NS1; Column A) | IC50 (Human Calpain 2/NS1; Column B) | IC50 (Human Calpain 9/NS1; Column C) | IC50 [1, 5] | IC50 ([2]; Column E) | IC50 [1, 6] | Molecule | % reduction compared to vehicle [3] |
| --- | --- | --- | --- | --- | --- | --- | --- | --- | --- | --- | --- | --- |
| < 3 µM | < 3 µM | < 3 µM | > 25 µM | < 10 µM | – | – | – | – | – | – | Cn1cc(C(=O)NC(Cc2ccccc2)C(=O)C(N)=O)c(-c2ccccc2Cl)n1 (centres unmarked) [Compound 604, N-(4-amino-3,4-dioxo-1-phenylbutan-2-yl)-3-(2-chlorophenyl)-1-methyl-1H-pyrazole-4-carboxamide] | – |
| < 3 µM | < 3 µM | < 3 µM | > 25 µM | > 25 µM | – | – | – | – | – | – | Cn1cc(C(=O)NC(Cc2ccccc2)C(=O)C(N)=O)c(-c2cnc3ccccc3c2)n1 (centres unmarked) [Compound 605, N-(4-amino-3,4-dioxo-1-phenylbutan-2-yl)-1-methyl-3-(quinolin-3-yl)-1H-pyrazole-4-carboxamide] | – |
| < 3 µM | < 3 µM | < 3 µM | 10 to 25 µM | > 25 µM | – | – | – | – | – | – | Cn1cc(C(=O)NC(Cc2ccccc2)C(=O)C(N)=O)c(-c2cccc3cnccc23)n1 (centres unmarked) [Compound 607, N-(4-amino-3,4-dioxo-1-phenylbutan-2-yl)-3-(isoquinolin-5-yl)-1-methyl-1H-pyrazole-4-carboxamide] | – |
| < 3 µM | < 3 µM | < 3 µM | 10 to 25 µM | > 25 µM | – | – | – | – | – | – | NC(=O)C(=O)C(Cc1ccccc1)NC(=O)C1CCCN1c1ccccc1 (centres unmarked) [compound 541] | – |
| < 3 µM | < 3 µM | < 3 µM | – | > 25 µM | – | – | – | – | – | < 10 µM | N-(4-amino-3,4-dioxo-1-phenylbutan-2-yl)-1-methyl-3-(5-methylthiophen-2-yl)-1H-pyrazole-4-carboxamide [Compound 505] | – |
| < 3 µM | < 3 µM | < 3 µM | – | 10 to 25 µM | – | – | – | – | – | 10 to 25 µM | N-(4-amino-3,4-dioxo-1-phenylbutan-2-yl)-3-(5-fluoropyridin-3-yl)-1-methyl-1H-pyrazole-4-carboxamide [Compound 506] | – |
